Experimental data as given in the supplement of paper PMC10307832.

Experiments:
Test in all cases: relative viability (nuclei count vs DMSO), 5 days (fraction); higher = more cells survive
Shikonin + Pictilisib = compound: CC(C)=CC[C@@H](O)C1=CC(=O)c2c(O)ccc(O)c2C1=O [Shikonin] + CS(=O)(=O)N1CCN(Cc2cc3nc(-c4cccc5[nH]ncc45)nc(N4CCOCC4)c3s2)CC1 [Pictilisib] (partner 1 µM)
Outline: (§1)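 Lung cancer cell lines in 1536-well plates got either a single drug or a fixed anchor-drug dose together with five library-drug doses (not always all listed) in √10 steps, by pin tool, on the day after seeding. Nuclei were counted after 5 days, and relative viability is the treated-to-vehicle ratio of nuclei counts. Values are medians of duplicate plates.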

Shikonin + Trametinib = compound: CC(C)=CC[C@@H](O)C1=CC(=O)c2c(O)ccc(O)c2C1=O [Shikonin] + CC(=O)Nc1cccc(-n2c(=O)n(C3CC3)c(=O)c3c(Nc4ccc(I)cc4F)n(C)c(=O)c(C)c32)c1 [Trametinib] (partner 0.02 µM)
Outline: as §1

[1] = compound: CC(C)N(CCCNC(=O)Nc1ccc(C(C)(C)C)cc1)C[C@H]1O[C@@H](n2ccc3c(N)ncnc32)[C@H](O)[C@@H]1O + CC(=O)Nc1cccc(-n2c(=O)n(C3CC3)c(=O)c3c(Nc4ccc(I)cc4F)n(C)c(=O)c(C)c32)c1 [Trametinib] (partner 0.02 µM)
Outline: as §1

Shikonin + Lapatinib = compound: CC(C)=CC[C@@H](O)C1=CC(=O)c2c(O)ccc(O)c2C1=O [Shikonin] + CS(=O)(=O)CCNCc1ccc(-c2ccc3ncnc(Nc4ccc(OCc5cccc(F)c5)c(Cl)c4)c3c2)o1 [Lapatinib] (partner 2 µM)
Outline: as §1

UMC-11
relative viability (Shikonin + Pictilisib; first compound 0.01 µM): 0.736
relative viability (Shikonin + Pictilisib; first compound 0.1 µM): 0.999
relative viability (Shikonin + Pictilisib; first compound 0.3162 µM): 0.76
relative viability (Shikonin + Pictilisib; first compound 1 µM): 0.97
relative viability (Shikonin + Trametinib; first compound 0.01 µM): 0.573
relative viability (Shikonin + Trametinib; first compound 0.1 µM): 0.802
relative viability (Shikonin + Trametinib; first compound 0.3162 µM): 0.656
relative viability (Shikonin + Trametinib; first compound 1 µM): 0.793
relative viability ([1]; first compound 0.08 µM): 0.691
relative viability ([1]; first compound 0.253 µM): 0.541
relative viability ([1]; first compound 0.8 µM): 0.588
relative viability ([1]; first compound 2.53 µM): 0.789
relative viability ([1]; first compound 8 µM): 0.796
relative viability (Shikonin + Lapatinib; first compound 0.01 µM): 1
relative viability (Shikonin + Lapatinib; first compound 0.1 µM): 1.08
relative viability (Shikonin + Lapatinib; first compound 0.3162 µM): 1
relative viability (Shikonin + Lapatinib; first compound 1 µM): 1.12
